Source: paper PMC4411097, “Pachymic Acid Inhibits Growth and Induces Apoptosis of Pancreatic Cancer In Vitro and In Vivo by Targeting ER Stress” (PLoS ONE, 2015)

Legend:
[1] = tested on: ER stress response proteins in MIA PaCa-2 cells; assay: Western blot of ER stress response proteins; assay type: cell-based, human
Description: (§1) PANC-1, MIA PaCa-2 cells were treated with PA (0–30 μM) for 10 min, 30 min or 24 h, respectively. Whole protein extracts isolated from cells and tumor tissues were prepared and western blot analysis with anti-cleaved PARP, anti-XBP-1s, anti-ATF6, anti-ATF4, anti-Hsp70, anti-CHOP, anti-phospho-eIF2α or anti-eIF2α antibodies were performed as previously described. Western blots were quantified with HP-Scanjet 550c and analyzed by UN-SCAN-IT software (Silk Scientific, Orem, UT). Three independent experiments were done for all the immunoblot studies and quantitative data composed of all the experiments with statistical analysis were added below the representative blot image.

[2] = tested on: ER stress response proteins in PANC-1 cells; assay: Western blot of ER stress response proteins; assay type: cell-based, human
Description: as §1

[3] = tested on: normal pancreatic duct epithelial cells HPDE-6; design: method as in PMID 23588713; settings: cited from earlier work
[4] = tested on: MIA PaCa-2 tumor xenograft; assay: Apoptosis measurement in tumor xenograft (apoptotic bodies, H&E); assay type: in vivo, female nude mice
Description: All formalin-fixed tumors were embedded in paraffin within 48 h and five-micrometer sections were stained with hematoxylin and eosin (H&E). The slides were viewed under a Leica microscope (Leica Instruments, Melville, NY) and apoptosis in the viable tumor cell area was quantified by counting apoptotic bodies in four 20 x fields of view for n = 6–12 tumors per group by 2 independent observers.

PANC-1 = tested on: PANC-1; design: method as in PMID 23588713; settings: PANC-1, 24 h; read-out: IC50-24 h, inhibition of proliferation; cited from earlier work
[5] = tested on: MIA PaCa-2 tumor xenograft; assay: Human pancreatic tumor xenograft experiment; assay type: in vivo, female nude mice; settings: day 34; for Average tumor volume: control approximately 448 mm^3
Description: Animal experiments were conducted strictly in accordance with the protocol approved by the Animal Research Committee at the Methodist Hospital (protocol no. 2011–07). MIA PaCa-2 cells (3x10^6) in 100 μl DPBS were implanted subcutaneously in the right flank on the ventral side of the 6 weeks old female nude mice (Harlan, Indianapolis, IN, USA). When tumors became palpable after 1–3 weeks (40–60 mm^3), animals were randomly assigned into three groups (n = 15) and received intraperitoneal (i.p.) injection 3 times per week of vehicle or PA (25 mg kg^-1 and 50 mg kg^-1) of body weight for additional 5 weeks. Tumor sizes were measured 3 times per week with microcalipers and the tumor volumes were calculated with the standard formula: tumor volume (mm^3) = L x W^2 x 0.5, where L is the length and W is the width of the tumor. At the end of the experiment (Day 35), the mice were euthanized by CO2 inhalation. The tumors were harvested and fixed in 10% neutral-buffered formalin at 4°C for 24 h or snap frozen and stored separately in liquid nitrogen.

MIA PaCa-2 = tested on: MIA PaCa-2; design: method as in PMID 23588713; settings: MIA PaCa-2, 24 h; read-out: IC50-24 h, inhibition of proliferation; cited from earlier work
[6] = tested on: HSPA6 and CHOP in MIA PaCa-2 tumor tissues; assay: Quantitative RT-PCR of tumor tissues; assay type: in vivo, female nude mice; settings: 25 mg kg^-1, vs controls
Description: The quantitative real-time polymerase chain reaction (qRT-PCR) was performed using ABI PRISM 7900HT Fast Real-Time PCR System (Applied Biosystems, Foster City, CA) according to the manufacturer's instructions. Total RNA was isolated from tumors with RNeasy Mini Kit (Qiagen, Valencia, CA). RNA quality was monitored and quantified using the Qubit 2.0 Fluorometer (Invitrogen, Carlsbad, CA). The RNA samples were reverse transcribed into cDNA using High Capacity cDNA Reverse Transcription Kit (Applied Biosystems, Foster City, CA). The cDNA (100 ng per sample) was subjected to qPCR analysis in triplicate. Analysis of the relative quantity gene expression (RQ) of HSPA6 and CHOP was normalized by ACTB expression and was performed using the 2^-ΔΔCt method.

[7] = Toxicology studies in vivo; design: species or system female nude mice; settings: for ALP: mean ± SD (n = 10–13), control 60 ± 19; for Albumin: control 1.5 ± 0.2; for AST: control 625 ± 367
Description: Toxicity of PA was evaluated in the 6 weeks old female nude mice (Harlan, Indianapolis, IN). The mice were acclimatized for 1 week and treated with PA (0, 25 or 50 mg kg^-1 of body weight, n = 15 per group) by i.p. 3 times per week for additional 5 weeks. The body weight was evaluated 3 times per week. At the end of the experiment, animals were euthanized by CO2 inhalation. Blood was collected and a gross pathology examination performed. Liver, spleen, kidney, lung and heart were harvested, fixed in 10% neutral-buffered formalin at 4°C for 24 h followed tissue processing overnight and then embedded in paraffin. Five-micrometer sections were stained with H&E. The levels of alkaline phosphatase (ALP), alanine aminotransferase (ALT), aspartate aminotransferase (AST), albumin and total protein were determined at the IU Health Pathology Laboratory (Indianapolis, IN).

[8] = design: method as in PMID 22213174; settings: rats fed by P. cocos; cited from earlier work
[9] = tested on: ATF4 and CHOP in MIA PaCa-2 tumor tissues; assay: Western blot of tumor tissues; assay type: in vivo, female nude mice; settings: 25 mg kg^-1, vs controls
Description: as §1

[10] = tested on: PARP cleavage (c-PARP) in MIA PaCa-2 cells; assay: Western blot for PARP cleavage (c-PARP); assay type: cell-based, human; settings: MIA PaCa-2, PA 0–30 μM, 24 h
Description: (§2) Apoptosis induction in PA-treated cells was assessed by quantitation of cytoplasmic histone-associated DNA fragments and western blotting for PARP cleavage (c-PARP). The Cell Death Detection ELISA^PLUS Kit (Roche, Indianapolis, IN) was used to detect the amount of cytoplasmic histone-associated DNA fragments according to the manufacturer’s instructions and expressed relative to vehicle-treated cells (set equal to 1).
as §1

[11] = tested on: PARP cleavage (c-PARP) in PANC-1 cells; assay: Western blot for PARP cleavage (c-PARP); assay type: cell-based, human; settings: PANC-1, PA 0–30 μM, 24 h
Description: as §2, §1

[12] = 25 mg kg^-1 i.p. 3 times per week
[13] = 50 mg kg^-1 i.p. 3 times per week

With `C=C(CC[C@@H](C(=O)O)[C@H]1[C@H](O)C[C@@]2(C)C3=C(CC[C@]12C)[C@@]1(C)CC[C@H](OC(C)=O)C(C)(C)[C@@H]1CC3)C(C)C` [PA, Pachymic acid] the “PA-phosphorylated eIF2α vs control” value ([1]; MIA PaCa-2, 30 μM PA, 10 min) was about 3 fold, the “Activation of XBP1 and ATF4 (protein level)” value ([1]; MIA PaCa-2, PA 0–30 μM, 24 h) was “significantly activated” and the “PA-phosphorylated eIF2α vs control” value ([2]; PANC-1, 30 μM PA, 10 min) was about 2 fold. The “Activation of XBP1 and ATF4 (protein level)” value ([2]; PANC-1, PA 0–30 μM, 24 h) was “significantly activated”, the “Effect on growth of normal pancreatic duct epithelial cells” value [3] was “only slightly affects” and the “Increase of apoptotic bodies in tumors vs control” value ([4]; 25 mg kg^-1) was “approximately 59%”. For the same molecule, the “Increase of apoptotic bodies in tumors vs control” value ([4]; 50 mg kg^-1) was about 2 fold, the IC50 (PANC-1) was 23.5 µM and the “Inhibition of tumor volume vs control” value [5, 12] was about 75%. For the same molecule, the Average tumor volume [5, 12] was “about 112 mm^3”, the “Inhibition of tumor volume vs control” value [5, 13] was about 80% and the Average tumor volume [5, 13] was about 89 mm^3. The IC50 (MIA PaCa-2) was 26.6 µM, the “Significant increase of HSPA6 and CHOP/GADD153 mRNA in tumors” value [6] was “not observed” and the “Liver enzyme profiles (ALP, ALT, AST, albumin, total protein)” value ([7]; 25 mg kg^-1) was “not markedly altered”. For the same molecule, the “Organ pathology by H&E (liver, kidney, spleen, lung, heart)” value ([7]; 25 mg kg^-1) was “did not demonstrate any abnormalities”, the ALP ([7]; 25 mg kg^-1, serum) was 62 ± 9 IU L^-1 and the Albumin ([7]; 25 mg kg^-1, serum, mean ± SD) was 1.6 ± 0.1 g/dL. The T Protein ([7]; 25 mg kg^-1, serum, mean ± SD, control 4.1 ± 0.5) was 4.5 ± 0.2 g/dL, the ALT ([7]; 25 mg kg^-1, serum, mean ± SD, control 123 ± 88) was 194 ± 193 IU L^-1 and the AST ([7]; 25 mg kg^-1, serum, mean ± SD) was 531 ± 296 IU L^-1. For the same molecule, the Clinical signs ([7]; 50 mg kg^-1) was “several signs of discomfort and impaired movement”, the “Organ pathology by H&E (liver, kidney, spleen, lung, heart)” value ([7]; 50 mg kg^-1) was “obvious pathological changes in liver, kidney and spleen tissues” and the ALP ([7]; 50 mg kg^-1, serum) was 59 ± 11 IU L^-1. The Albumin ([7]; 50 mg kg^-1, serum, mean ± SD) was 1.6 ± 0.1 g/dL, the AST ([7]; 50 mg kg^-1, serum, mean ± SD) was 1431 ± 997 IU L^-1 and the “Body weight, treatment groups vs control” value ([7]; 25 and 50 mg kg^-1 i.p. 3 times per week, 5 weeks) was “no significant differences”. For the same molecule, the “Presence in urine and plasma” value [8] was “detectable”, the “Expression of ATF4 and CHOP proteins in tumors” value [9] was “significant increase” and the “Increase in expression of PARP cleavage vs vehicle-treated control” value [10] was about 4 fold. The “Increase in expression of PARP cleavage vs vehicle-treated control” value [11] was “approximately 3 fold”.
